Columns and labels:
[1] = test system: TRZAWR (Wheat, Winter, cv Riband); assay: Preemergence herbicidal evaluation; format: in vivo, Triticum aestivum; details: preemergence, rated 4-5 weeks after treatment
In short: (§1)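 Each species was sown separately in potting soil over roughly one inch of soil, and the surface sprayed with compound dissolved in aqueous acetone. Assessment used a 0–9 visual scale against a control after four to five weeks.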

[2] = test system: IPOHE (Ipomoea hederacea); assay: Postemergence herbicidal evaluation; format: in vivo, (L.) Jacq.
In short: (§2)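 Seedlings grown for about two weeks were sprayed postemergence and then kept under standard greenhouse care. Injury was rated visually 4–5 weeks after treatment on a 0–9 scale against untreated controls, and ratings from repeat tests were averaged.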

[3] = test system: CHEAL (Chenopodium album); assay: Postemergence herbicidal evaluation; format: in vivo, L.
In short: as §2

[4] = test system: CASOB (Cassia obtusifolia); assay: Postemergence herbicidal evaluation; format: in vivo, L.
In short: as §2

[5] = test system: AMBEL (Ambrosia artemisifolia); assay: Postemergence herbicidal evaluation; format: in vivo, L.
In short: as §2

[6] = test system: TRZAWR (Wheat, Winter, cv Riband); assay: Postemergence herbicidal evaluation; format: in vivo, Triticum aestivum
In short: as §2

ZEAMX (Corn, Field) = assay: Postemergence herbicidal evaluation; format: in vivo, Zea mays, L.
In short: as §2

[7] = test system: ECHCG (Echinochloa crus-galli); assay: Postemergence herbicidal evaluation; format: in vivo, (L.) Beau
In short: as §2

[8] = test system: ABUTH (Abutilon theophrasti); assay: Postemergence herbicidal evaluation; format: in vivo, Medic.
In short: as §2

[9] = test system: CHEAL (Chenopodium album); assay: Preemergence herbicidal evaluation; format: in vivo, L.; details: preemergence, rated 4-5 weeks after treatment
In short: as §1

[10] = test system: CASOB (Cassia obtusifolia); assay: Preemergence herbicidal evaluation; format: in vivo, L.; details: preemergence, rated 4-5 weeks after treatment
In short: as §1

[11] = test system: AMBEL (Ambrosia artemisifolia); assay: Preemergence herbicidal evaluation; format: in vivo, L.; details: preemergence, rated 4-5 weeks after treatment
In short: as §1

ORYSAT (Rice, Tebonnet) [12] = assay: Postemergence herbicidal evaluation; format: in vivo, Oryza sativa, (L.) Tebonnet
In short: as §2

ORYSAT (Rice, Tebonnet) [13] = assay: Preemergence herbicidal evaluation; format: in vivo, Oryza sativa, (L.) Tebonnet; details: preemergence, rated 4-5 weeks after treatment
[14] = test system: CYPSE (Cyperus serotinus); assay: Flooded paddy, preemergence weed control; format: in vivo, Rottb.; details: rated 3-4 weeks after treatment, 0-9 rating scale
In short: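 Herbicidal effect was scored visually on a 0–9 scale against an untreated control 3–4 weeks after treatment. Compounds were applied preemergence as 50/50 v/v aqueous/acetone mixtures into flood water (1.5–3 cm deep over silt loam), at roughly 0.0080 to 0.1250 kg/ha active ingredient.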

[15] = test system: ABUTH (Abutilon theophrasti); assay: Preemergence herbicidal evaluation; format: in vivo, Medic.; details: preemergence, rated 4-5 weeks after treatment
[16] = test system: ECHORC (Echinochloa oryzoides); assay: Flooded paddy, preemergence weed control; format: in vivo, Echinochloa oryzoides (Ard.) Fritsch.; details: rated 3-4 weeks after treatment, 0-9 rating scale
In short: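 Visual 0-9 rating versus control, scoring stand, vigor, malformation, size, chlorosis and overall appearance. Silt loam soil, propagules in top 0.5 cm; flood depth 1.5–3 cm held for the whole test; greenhouse.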

Question: “1-methyl-3-[3-(1,3-oxathiolan-2-yl)-1,2-benzisothiazol-5-yl]-6-(trifluoromethyl)uracil S′,S′-dioxide [Compound 32]” was tested. Which “TRZAWR preemergence herbicidal rating” value ([1]; Rate 0.0620 kg/ha) did it give?
Answer: 7.0

Question: And the “TRZAWR preemergence herbicidal rating” value ([1]; Rate 0.1250 kg/ha)?
Answer: 8.0

Question: What about the “TRZAWR preemergence herbicidal rating” value ([1]; Rate 0.2500 kg/ha) of the same molecule?
Answer: 9.0

Question: And the “Postemergence herbicidal rating, IPOHE” value ([2]; rate 0.0320 kg/ha)?
Answer: 9.0

Question: What about the “Postemergence herbicidal rating, IPOHE” value ([2]; rate 0.0620 kg/ha) of the same molecule?
Answer: 9.0

Question: And the “Postemergence herbicidal rating, CHEAL” value ([3]; rate 0.0320 kg/ha)?
Answer: 9.0

Question: What about the “Postemergence herbicidal rating, CHEAL” value ([3]; rate 0.0620 kg/ha) of the same molecule?
Answer: 9.0

Question: What about the “Postemergence herbicidal rating, CASOB” value ([4]; rate 0.0320 kg/ha) of the same molecule?
Answer: 7.0

Question: And the “Postemergence herbicidal rating, CASOB” value ([4]; rate 0.0620 kg/ha)?
Answer: 9.0

Question: What about the “Postemergence herbicidal rating, AMBEL” value ([5]; rate 0.0320 kg/ha) of the same molecule?
Answer: 9.0

Question: And the “Postemergence herbicidal rating, AMBEL” value ([5]; rate 0.0620 kg/ha)?
Answer: 9.0

Question: What about the “Postemergence herbicidal rating, TRZAWR” value ([6]; rate 0.0320 kg/ha) of the same molecule?
Answer: 5.0

Question: And the “Postemergence herbicidal rating, TRZAWR” value ([6]; rate 0.0620 kg/ha)?
Answer: 5.5

Question: And the “Postemergence herbicidal rating, ZEAMX” value (ZEAMX (Corn, Field); rate 0.0320 kg/ha)?
Answer: 5.5

Question: And the “Postemergence herbicidal rating, ZEAMX” value (ZEAMX (Corn, Field); rate 0.0620 kg/ha)?
Answer: 5.5

Question: And the “Postemergence herbicidal rating, ECHCG” value ([7]; rate 0.0320 kg/ha)?
Answer: 3.0

Question: What about the “Postemergence herbicidal rating, ECHCG” value ([7]; rate 0.0620 kg/ha) of the same molecule?
Answer: 5.0

Question: And the “Postemergence herbicidal rating, ABUTH” value ([8]; rate 0.0320 kg/ha)?
Answer: 9.0

Question: And the “Postemergence herbicidal rating, ABUTH” value ([8]; rate 0.0620 kg/ha)?
Answer: 9.0

Question: What about the “CHEAL preemergence herbicidal rating” value ([9]; Rate 0.0620 kg/ha) of the same molecule?
Answer: 9.0

Question: What about the “CHEAL preemergence herbicidal rating” value ([9]; Rate 0.1250 kg/ha) of the same molecule?
Answer: 9.0

Question: What about the “CHEAL preemergence herbicidal rating” value ([9]; Rate 0.2500 kg/ha) of the same molecule?
Answer: 9.0

Question: What about the “CASOB preemergence herbicidal rating” value ([10]; Rate 0.0620 kg/ha) of the same molecule?
Answer: 6.5

Question: What about the “CASOB preemergence herbicidal rating” value ([10]; Rate 0.1250 kg/ha) of the same molecule?
Answer: 8.0

Question: And the “CASOB preemergence herbicidal rating” value ([10]; Rate 0.2500 kg/ha)?
Answer: 9.0

Question: And the “AMBEL preemergence herbicidal rating” value ([11]; Rate 0.0620 kg/ha)?
Answer: 9.0

Question: And the “AMBEL preemergence herbicidal rating” value ([11]; Rate 0.1250 kg/ha)?
Answer: 9.0

Question: What about the “AMBEL preemergence herbicidal rating” value ([11]; Rate 0.2500 kg/ha) of the same molecule?
Answer: 9.0

Question: What about the “Postemergence herbicidal rating, ORYSAT” value (ORYSAT (Rice, Tebonnet) [12]; rate 0.0320 kg/ha) of the same molecule?
Answer: 5.0

Question: And the “Postemergence herbicidal rating, ORYSAT” value (ORYSAT (Rice, Tebonnet) [12]; rate 0.0620 kg/ha)?
Answer: 5.5

Question: And the “ORYSAT preemergence herbicidal rating” value (ORYSAT (Rice, Tebonnet) [13]; Rate 0.0620 kg/ha)?
Answer: 5.0

Question: What about the “ORYSAT preemergence herbicidal rating” value (ORYSAT (Rice, Tebonnet) [13]; Rate 0.1250 kg/ha) of the same molecule?
Answer: 7.5

Question: What about the “ORYSAT preemergence herbicidal rating” value (ORYSAT (Rice, Tebonnet) [13]; Rate 0.2500 kg/ha) of the same molecule?
Answer: 8.5

Question: And the “herbicidal rating, CYPSE” value ([14]; rate 0.0320 kg/ha)?
Answer: 0.0

Question: What about the “ABUTH preemergence herbicidal rating” value ([15]; Rate 0.0620 kg/ha) of the same molecule?
Answer: 9.0

Question: What about the “ABUTH preemergence herbicidal rating” value ([15]; Rate 0.1250 kg/ha) of the same molecule?
Answer: 9.0

Question: And the “ABUTH preemergence herbicidal rating” value ([15]; Rate 0.2500 kg/ha)?
Answer: 9.0

Question: What about the “herbicidal rating, ECHORC” value ([16]; rate 0.0320 kg/ha) of the same molecule?
Answer: 0.0

Question: What about the “herbicidal rating, ECHORC” value ([16]; rate 0.1250 kg/ha) of the same molecule?
Answer: 0.0

Question: With `Cn1c(C(F)(F)F)cc(=O)n(-c2ccc3snc(C(SCCO)SCCO)c3c2)c1=O` [Compound 33, 1,2-benzisothiazole-3-carboxaldehyde, 5-[3,6-dihydro-3-methyl-2,6-dioxo-4-(trifluoromethyl)-1(2H)-pyrimidinyl]-, 3-[bis(2-hydroxyethyl)dithioacetal]] as the molecule, how does the “TRZAWR preemergence herbicidal rating” value ([1]; Rate 0.0620 kg/ha) read?
Answer: 0.0

Question: What about the “TRZAWR preemergence herbicidal rating” value ([1]; Rate 0.1250 kg/ha) of the same molecule?
Answer: 1.0

Question: And the “TRZAWR preemergence herbicidal rating” value ([1]; Rate 0.2500 kg/ha)?
Answer: 4.0

Question: And the “Postemergence herbicidal rating, IPOHE” value ([2]; rate 0.0320 kg/ha)?
Answer: 7.0

Question: What about the “Postemergence herbicidal rating, IPOHE” value ([2]; rate 0.0620 kg/ha) of the same molecule?
Answer: 9.0

Question: What about the “Postemergence herbicidal rating, CHEAL” value ([3]; rate 0.0320 kg/ha) of the same molecule?
Answer: 3.0

Question: What about the “Postemergence herbicidal rating, CHEAL” value ([3]; rate 0.0620 kg/ha) of the same molecule?
Answer: 7.0

Question: What about the “Postemergence herbicidal rating, CASOB” value ([4]; rate 0.0320 kg/ha) of the same molecule?
Answer: 0.0

Question: What about the “Postemergence herbicidal rating, CASOB” value ([4]; rate 0.0620 kg/ha) of the same molecule?
Answer: 1.0

Question: And the “Postemergence herbicidal rating, AMBEL” value ([5]; rate 0.0320 kg/ha)?
Answer: 4.0

Question: What about the “Postemergence herbicidal rating, AMBEL” value ([5]; rate 0.0620 kg/ha) of the same molecule?
Answer: 9.0

Question: And the “Postemergence herbicidal rating, TRZAWR” value ([6]; rate 0.0320 kg/ha)?
Answer: 4.0

Question: What about the “Postemergence herbicidal rating, TRZAWR” value ([6]; rate 0.0620 kg/ha) of the same molecule?
Answer: 5.0

Question: And the “Postemergence herbicidal rating, ZEAMX” value (ZEAMX (Corn, Field); rate 0.0320 kg/ha)?
Answer: 5.0

Question: And the “Postemergence herbicidal rating, ZEAMX” value (ZEAMX (Corn, Field); rate 0.0620 kg/ha)?
Answer: 5.5

Question: What about the “Postemergence herbicidal rating, ECHCG” value ([7]; rate 0.0320 kg/ha) of the same molecule?
Answer: 1.0

Question: What about the “Postemergence herbicidal rating, ECHCG” value ([7]; rate 0.0620 kg/ha) of the same molecule?
Answer: 3.0

Question: What about the “Postemergence herbicidal rating, ABUTH” value ([8]; rate 0.0320 kg/ha) of the same molecule?
Answer: 9.0

Question: What about the “Postemergence herbicidal rating, ABUTH” value ([8]; rate 0.0620 kg/ha) of the same molecule?
Answer: 9.0

Question: What about the “CHEAL preemergence herbicidal rating” value ([9]; Rate 0.0620 kg/ha) of the same molecule?
Answer: 4.0

Question: And the “CHEAL preemergence herbicidal rating” value ([9]; Rate 0.1250 kg/ha)?
Answer: 7.0

Question: What about the “CHEAL preemergence herbicidal rating” value ([9]; Rate 0.2500 kg/ha) of the same molecule?
Answer: 9.0

Question: And the “CASOB preemergence herbicidal rating” value ([10]; Rate 0.0620 kg/ha)?
Answer: 0.0

Question: What about the “CASOB preemergence herbicidal rating” value ([10]; Rate 0.1250 kg/ha) of the same molecule?
Answer: 0.0

Question: And the “CASOB preemergence herbicidal rating” value ([10]; Rate 0.2500 kg/ha)?
Answer: 0.0

Question: What about the “AMBEL preemergence herbicidal rating” value ([11]; Rate 0.0620 kg/ha) of the same molecule?
Answer: 2.0

Question: And the “AMBEL preemergence herbicidal rating” value ([11]; Rate 0.1250 kg/ha)?
Answer: 4.0

Question: What about the “AMBEL preemergence herbicidal rating” value ([11]; Rate 0.2500 kg/ha) of the same molecule?
Answer: 8.0

Question: And the “Postemergence herbicidal rating, ORYSAT” value (ORYSAT (Rice, Tebonnet) [12]; rate 0.0320 kg/ha)?
Answer: 4.0

Question: What about the “Postemergence herbicidal rating, ORYSAT” value (ORYSAT (Rice, Tebonnet) [12]; rate 0.0620 kg/ha) of the same molecule?
Answer: 5.0

Question: And the “ORYSAT preemergence herbicidal rating” value (ORYSAT (Rice, Tebonnet) [13]; Rate 0.0620 kg/ha)?
Answer: 0.0

Question: And the “ORYSAT preemergence herbicidal rating” value (ORYSAT (Rice, Tebonnet) [13]; Rate 0.1250 kg/ha)?
Answer: 3.0

Question: And the “ORYSAT preemergence herbicidal rating” value (ORYSAT (Rice, Tebonnet) [13]; Rate 0.2500 kg/ha)?
Answer: 6.0

Question: And the “herbicidal rating, CYPSE” value ([14]; rate 0.0320 kg/ha)?
Answer: 0.0

Question: What about the “herbicidal rating, CYPSE” value ([14]; rate 0.1250 kg/ha) of the same molecule?
Answer: 0.0

Question: And the “ABUTH preemergence herbicidal rating” value ([15]; Rate 0.0620 kg/ha)?
Answer: 2.0

Question: What about the “ABUTH preemergence herbicidal rating” value ([15]; Rate 0.1250 kg/ha) of the same molecule?
Answer: 9.0

Question: What about the “ABUTH preemergence herbicidal rating” value ([15]; Rate 0.2500 kg/ha) of the same molecule?
Answer: 9.0

Question: And the “herbicidal rating, ECHORC” value ([16]; rate 0.0320 kg/ha)?
Answer: 0.0

Question: And the “herbicidal rating, ECHORC” value ([16]; rate 0.1250 kg/ha)?
Answer: 2.0
